Reference: patent US6737383B1, “Herbicidal oxadiazolidines” (priority 1999, dated 2004)

What was measured:
cocklebur = experiment: Test B pre/postemergence cocklebur; assay type: in vivo, Xanthium strumarium
Method in brief: (§1)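 Test chemicals in a non-phytotoxic solvent mixture with surfactant were sprayed preemergence onto planted seeds and postemergence onto plants 2 to 18 cm tall (1- to 4-leaf stage). After twelve to sixteen days in a greenhouse, injury was visually rated against untreated controls from 0 (no effect) to 10 (complete control).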

rape = experiment: Test B pre/postemergence rape; assay type: in vivo, Brassica napus
Method in brief: as §1

smallflower flatsedge = experiment: Test B flood test smallflower flatsedge; assay type: in vivo, Cyperus difformis
Method in brief: (§2)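 Each value is a visual injury score relative to controls, with 10 meaning complete control and 0 no effect. Evaluation took place twelve to sixteen days after the 2-leaf-stage plants were treated and kept in the greenhouse.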

surinam grass = experiment: Test B pre/postemergence surinam grass; assay type: in vivo, Brachiaria decumbens
Method in brief: as §1

wild oat = experiment: Test B pre/postemergence wild oat; assay type: in vivo, Avena fatua
Method in brief: as §1

soybean = experiment: Test B pre/postemergence soybean; assay type: in vivo, Glycine max
Method in brief: as §1

bamyardgrass = experiment: Test B flood test barnyardgrass; assay type: in vivo, Echinochloa crus-galli
Method in brief: as §2

duck salad = experiment: Test B flood test duck salad; assay type: in vivo, Heteranthera limosa
Method in brief: as §2

pigweed = experiment: Test B pre/postemergence pigweed; assay type: in vivo, Amaranthus retroflexus
Method in brief: as §1

purple nutsedge = experiment: Test B pre/postemergence purple nutsedge; assay type: in vivo, Cyperus rotundus
Method in brief: as §1

wheat = experiment: Test B pre/postemergence wheat; assay type: in vivo, Triticum aestivum
Method in brief: as §1

giant foxtail = experiment: Test B pre/postemergence giant foxtail; assay type: in vivo, Setaria faberii
Method in brief: as §1

velvetleaf = experiment: Test B pre/postemergence velvetleaf; assay type: in vivo, Abutilon theophrasti
Method in brief: as §1

blackgrass = experiment: Test B pre/postemergence blackgrass; assay type: in vivo, Alopecurus myosuroides
Method in brief: as §1

morningglory = experiment: Test B pre/postemergence morningglory; assay type: in vivo, Ipomoea hederacea
Method in brief: as §1

bedstraw = experiment: Test B pre/postemergence bedstraw; assay type: in vivo, Galium aparine
Method in brief: as §1

[1] = Preemergence, Rate 62 g/ha, scale of 0 to 10 where 0 is no effect and 10 is complete control
[2] = Preemergence, Rate 250 g/ha, scale of 0 to 10 where 0 is no effect and 10 is complete control
[3] = Preemergence, Rate 500 g/ha, scale of 0 to 10 where 0 is no effect and 10 is complete control
[4] = Rate 62 g/ha, Postemergence, scale of 0 to 10 where 0 is no effect and 10 is complete control
[5] = Rate 125 g/ha, Postemergence, scale of 0 to 10 where 0 is no effect and 10 is complete control
[6] = Rate 125 g/ha, Preemergence, scale of 0 to 10 where 0 is no effect and 10 is complete control
[7] = Rate 250 g/ha, Postemergence, scale of 0 to 10 where 0 is no effect and 10 is complete control
[8] = Rate 500 g/ha, Postemergence, scale 0 to 10, 0 no effect, 10 complete control
[9] = Rate 62 g/ha, headed Pre-emergence (flood test species), scale 0 to 10 (0 no effect, 10 complete control)
[10] = Rate 125 g/ha, Pre-emergence, flood test species, scale 0 to 10 where 0 is no effect and 10 is complete control
[11] = Rate 250 g/ha, Pre-emergence, flood-test species, scale 0 to 10, 0 is no effect, 10 is complete control
[12] = Rate 500 g/ha, Pre-emergence, flood test species, scale 0 to 10 (0 no effect, 10 complete control)

CC(C)N(C(=O)n1oc(=O)n(CC(C)(C)C)c1=O)c1ccccc1 [Compound 276]
Cocklebur plant response rating (cocklebur; [1]): 0
Cocklebur plant response rating (cocklebur; [2]): 0
Plant response rating, Cocklebur (cocklebur; [3]): 0
Cocklebur plant response rating (cocklebur; [4]): 0
Cocklebur plant response rating (cocklebur; [5]): 0
Cocklebur plant response rating (cocklebur; [6]): 0
Plant response rating, Cocklebur (cocklebur; [7]): 0
Cocklebur plant response rating (cocklebur; [8]): 0
Rape plant response rating (rape; [1]): 0
Rape plant response rating (rape; [2]): 1
Plant response rating, Rape (rape; [3]): 10
Rape plant response rating (rape; [5]): 0
Rape plant response rating (rape; [6]): 0
Plant response rating, Rape (rape; [7]): 0
Rape plant response rating (rape; [8]): 0
S. Flatsedge plant response rating (smallflower flatsedge; [9]): 0
S. Flatsedge plant response rating (smallflower flatsedge; [10]): 0
S. Flatsedge plant response rating (smallflower flatsedge; [11]): 0
S. Flatsedge plant response rating (smallflower flatsedge; [12]): 0
B. signalgrass plant response rating (surinam grass; [1]): 4
B. signalgrass plant response rating (surinam grass; [2]): 10
Plant response rating, B. signalgrass (surinam grass; [3]): 10
B. signalgrass plant response rating (surinam grass; [4]): 0
B. signalgrass plant response rating (surinam grass; [5]): 0
B. signalgrass plant response rating (surinam grass; [6]): 7
Plant response rating, B. signalgrass (surinam grass; [7]): 0
B. signalgrass plant response rating (surinam grass; [8]): 0
Wild oats plant response rating (wild oat; [1]): 0
Wild oats plant response rating (wild oat; [2]): 4
Plant response rating, Wild oats (wild oat; [3]): 6
Wild oats plant response rating (wild oat; [5]): 0
Plant response rating, Wild oats (wild oat; [7]): 0
Wild oats plant response rating (wild oat; [8]): 0
Soybean plant response rating (soybean; [1]): 0
Soybean plant response rating (soybean; [2]): 0
Plant response rating, Soybean (soybean; [3]): 0
Soybean plant response rating (soybean; [5]): 5
Soybean plant response rating (soybean; [6]): 0
Plant response rating, Soybean (soybean; [7]): 6
Soybean plant response rating (soybean; [8]): 7
Barnyardgrass plant response rating (bamyardgrass; [9]): 1
Barnyardgrass plant response rating (bamyardgrass; [10]): 6
Barnyardgrass plant response rating (bamyardgrass; [11]): 8
Barnyardgrass plant response rating (bamyardgrass; [12]): 8
Ducksalad plant response rating (duck salad; [9]): 0
Ducksalad plant response rating (duck salad; [10]): 0
Ducksalad plant response rating (duck salad; [11]): 0
Ducksalad plant response rating (duck salad; [12]): 0
Redroot pigweed plant response rating (pigweed; [1]): 0
Redroot pigweed plant response rating (pigweed; [2]): 2
Plant response rating, Redroot pigweed (pigweed; [3]): 4
Redroot pigweed plant response rating (pigweed; [5]): 0
Redroot pigweed plant response rating (pigweed; [6]): 0
Plant response rating, Redroot pigweed (pigweed; [7]): 1
Redroot pigweed plant response rating (pigweed; [8]): 2
Nutsedge plant response rating (purple nutsedge; [1]): 0
Nutsedge plant response rating (purple nutsedge; [5]): 0
Nutsedge plant response rating (purple nutsedge; [6]): 0
Plant response rating, Nutsedge (purple nutsedge; [7]): 0
Nutsedge plant response rating (purple nutsedge; [8]): 0
Wheat plant response rating (wheat; [1]): 0
Wheat plant response rating (wheat; [2]): 0
Plant response rating, Wheat (wheat; [3]): 3
Wheat plant response rating (wheat; [5]): 0
Wheat plant response rating (wheat; [6]): 0
Plant response rating, Wheat (wheat; [7]): 0
Wheat plant response rating (wheat; [8]): 0
Giant foxtail plant response rating (giant foxtail; [1]): 9
Giant foxtail plant response rating (giant foxtail; [2]): 10
Plant response rating, Giant foxtail (giant foxtail; [3]): 10
Giant foxtail plant response rating (giant foxtail; [5]): 1
Giant foxtail plant response rating (giant foxtail; [6]): 10
Plant response rating, Giant foxtail (giant foxtail; [7]): 4
Giant foxtail plant response rating (giant foxtail; [8]): 6
Velvetleaf plant response rating (velvetleaf; [1]): 0
Velvetleaf plant response rating (velvetleaf; [2]): 0
Plant response rating, Velvetleaf (velvetleaf; [3]): 3
Velvetleaf plant response rating (velvetleaf; [5]): 0
Velvetleaf plant response rating (velvetleaf; [6]): 0
Plant response rating, Velvetleaf (velvetleaf; [7]): 0
Velvetleaf plant response rating (velvetleaf; [8]): 0
Blackgrass plant response rating (blackgrass; [2]): 10
Plant response rating, Blackgrass (blackgrass; [3]): 10
Blackgrass plant response rating (blackgrass; [4]): 0
Blackgrass plant response rating (blackgrass; [5]): 1
Blackgrass plant response rating (blackgrass; [6]): 6
Plant response rating, Blackgrass (blackgrass; [7]): 4
Blackgrass plant response rating (blackgrass; [8]): 8
Morningglory plant response rating (morningglory; [1]): 0
Morningglory plant response rating (morningglory; [2]): 0
Plant response rating, Morningglory (morningglory; [3]): 0
Morningglory plant response rating (morningglory; [5]): 6
Morningglory plant response rating (morningglory; [6]): 0
Plant response rating, Morningglory (morningglory; [7]): 6
Morningglory plant response rating (morningglory; [8]): 8
Bedstraw plant response rating (bedstraw; [1]): 0
Bedstraw plant response rating (bedstraw; [2]): 0
Plant response rating, Bedstraw (bedstraw; [3]): 0
Bedstraw plant response rating (bedstraw; [4]): 0
Bedstraw plant response rating (bedstraw; [5]): 0
Bedstraw plant response rating (bedstraw; [6]): 0
Plant response rating, Bedstraw (bedstraw; [7]): 3
Bedstraw plant response rating (bedstraw; [8]): 3
